# Source: US10010545B1, “Antibiotic compositions and methods of use” (University of South Florida, priority 2013, dated 2018)
# Experiments:
# Enterococcus faecium = assay: Growth testing against ESKAPE pathogens: Enterococcus faecium; format: cell-based; set-up: key: Growth; X: No Growth
# Method: (§1) Six analogs (FIG. 2) of the ciprofloxacin-N thiolated β-lactam were successfully synthesized. All these compounds were then tested against ESKAPE pathogens for bioactivity. The ESKAPE pathogens are a collection of six deadly superbugs, Enterococcus faecium, Staphylococcus aureus, Klebsiella pneumoniae, Acinetobacter baumannii, Pseudomonas aeruginosa, and Enterobacter species. […] G denotes growth and X denotes no growth in the tables.
# Staphylococcus aureus = assay: Growth testing against ESKAPE pathogens: Staphylococcus aureus; format: cell-based; set-up: key to Activity against Staphylococcus aureus (growth observed): Growth; X: No Growth
# Method: as §1
# Klebesiella pneumonia = assay: Growth testing against ESKAPE pathogens: Klebesiella pneumonia; format: cell-based, Klebsiella pneumoniae; set-up: key: Growth; X: No Growth
# Method: as §1
# Acinetobacter baumannii = assay: Growth testing against ESKAPE pathogens: Acinetobacter baumannii; format: cell-based; set-up: key: Growth; X: No Growth
# Method: as §1
# Pseudomonas aeruginosa = assay: Growth testing against ESKAPE pathogens: Pseudomonas aeruginosa; format: cell-based; set-up: key: Growth; X: No Growth
# Method: as §1
structure (smiles),measurement,setting,value
CCCCCC(=O)N1CCN(c2cc3c(cc2F)c(=O)c(C(=O)OC2C(=O)N(SC(C)CC)C2c2ccccc2Cl)cn3C2CC2)CC1 (stereo not drawn) [Lactam 129],Activity against Enterococcus faecium (growth observed),Enterococcus faecium; 1 μg/ml,G
same,Activity against Enterococcus faecium (growth observed),Enterococcus faecium; 2 μg/ml,G
same,Activity against Enterococcus faecium (growth observed),Enterococcus faecium; 3 μg/ml,G
same,Activity against Enterococcus faecium (growth observed),Enterococcus faecium; 4 μg/ml,G
same,Activity against Enterococcus faecium (growth observed),Enterococcus faecium; 5 μg/ml,G
same,Activity against Enterococcus faecium (growth observed),Enterococcus faecium; 6 μg/ml,G
same,Activity against Enterococcus faecium (growth observed),Enterococcus faecium; 7 μg/ml,G
same,Activity against Enterococcus faecium (growth observed),Enterococcus faecium; 8 μg/ml,G
same,Activity against Enterococcus faecium (growth observed),Enterococcus faecium; 9 μg/ml,G
same,Activity against Enterococcus faecium (growth observed),Enterococcus faecium; 10 μg/ml,G
same,Activity against Enterococcus faecium (growth observed),Enterococcus faecium; 25 μg/ml,G
same,Activity against Staphylococcus aureus (growth observed),Staphylococcus aureus; 1 μg/ml,G
same,Activity against Staphylococcus aureus (growth observed),Staphylococcus aureus; 2 μg/ml,G
same,Activity against Staphylococcus aureus (growth observed),Staphylococcus aureus; 3 μg/ml,G
same,Activity against Staphylococcus aureus (growth observed),Staphylococcus aureus; 4 μg/ml,G
same,Activity against Staphylococcus aureus (growth observed),Staphylococcus aureus; 5 μg/ml,G
same,Activity against Staphylococcus aureus (growth observed),Staphylococcus aureus; 6 μg/ml,G
same,Activity against Staphylococcus aureus (growth observed),Staphylococcus aureus; 7 μg/ml,G
same,Activity against Staphylococcus aureus (growth observed),Staphylococcus aureus; 8 μg/ml,G
same,Activity against Staphylococcus aureus (growth observed),Staphylococcus aureus; 9 μg/ml,G
same,Activity against Staphylococcus aureus (growth observed),Staphylococcus aureus; 10 μg/ml,G
same,Activity against Staphylococcus aureus (growth observed),Staphylococcus aureus; 25 μg/ml,G
same,Activity against Klebesiella pneumonia (growth observed),Klebesiella pneumonia; 1 μg/ml,G
same,Activity against Klebesiella pneumonia (growth observed),Klebesiella pneumonia; 2 μg/ml,G
same,Activity against Klebesiella pneumonia (growth observed),Klebesiella pneumonia; 3 μg/ml,G
same,Activity against Klebesiella pneumonia (growth observed),Klebesiella pneumonia; 4 μg/ml,G
same,Activity against Klebesiella pneumonia (growth observed),Klebesiella pneumonia; 5 μg/ml,G
same,Activity against Klebesiella pneumonia (growth observed),Klebesiella pneumonia; 6 μg/ml,G
same,Activity against Klebesiella pneumonia (growth observed),Klebesiella pneumonia; 7 μg/ml,G
same,Activity against Klebesiella pneumonia (growth observed),Klebesiella pneumonia; 8 μg/ml,G
same,Activity against Klebesiella pneumonia (growth observed),Klebesiella pneumonia; 9 μg/ml,G
same,Activity against Klebesiella pneumonia (growth observed),Klebesiella pneumonia; 10 μg/ml,G
same,Activity against Klebesiella pneumonia (growth observed),Klebesiella pneumonia; 25 μg/ml,G
same,Activity against Acinetobacter baumannii (growth observed),Acinetobacter baumannii; 1 μg/ml,G
same,Activity against Acinetobacter baumannii (growth observed),Acinetobacter baumannii; 2 μg/ml,G
same,Activity against Acinetobacter baumannii (growth observed),Acinetobacter baumannii; 3 μg/ml,G
same,Activity against Acinetobacter baumannii (growth observed),Acinetobacter baumannii; 4 μg/ml,G
same,Activity against Acinetobacter baumannii (growth observed),Acinetobacter baumannii; 5 μg/ml,G
same,Activity against Acinetobacter baumannii (growth observed),Acinetobacter baumannii; 6 μg/ml,G
same,Activity against Acinetobacter baumannii (growth observed),Acinetobacter baumannii; 7 μg/ml,G
same,Activity against Acinetobacter baumannii (growth observed),Acinetobacter baumannii; 8 μg/ml,G
same,Activity against Acinetobacter baumannii (growth observed),Acinetobacter baumannii; 9 μg/ml,G
same,Activity against Acinetobacter baumannii (growth observed),Acinetobacter baumannii; 10 μg/ml,G
same,Activity against Acinetobacter baumannii (growth observed),Acinetobacter baumannii; 25 μg/ml,G
same,Activity against Pseudomonas aeruginosa (growth observed),Pseudomonas aeruginosa; 1 μg/ml,G
same,Activity against Pseudomonas aeruginosa (growth observed),Pseudomonas aeruginosa; 2 μg/ml,G
same,Activity against Pseudomonas aeruginosa (growth observed),Pseudomonas aeruginosa; 3 μg/ml,G
same,Activity against Pseudomonas aeruginosa (growth observed),Pseudomonas aeruginosa; 4 μg/ml,G
same,Activity against Pseudomonas aeruginosa (growth observed),Pseudomonas aeruginosa; 5 μg/ml,G
same,Activity against Pseudomonas aeruginosa (growth observed),Pseudomonas aeruginosa; 6 μg/ml,G
same,Activity against Pseudomonas aeruginosa (growth observed),Pseudomonas aeruginosa; 7 μg/ml,G
same,Activity against Pseudomonas aeruginosa (growth observed),Pseudomonas aeruginosa; 8 μg/ml,G
same,Activity against Pseudomonas aeruginosa (growth observed),Pseudomonas aeruginosa; 9 μg/ml,G
same,Activity against Pseudomonas aeruginosa (growth observed),Pseudomonas aeruginosa; 10 μg/ml,G
same,Activity against Pseudomonas aeruginosa (growth observed),Pseudomonas aeruginosa; 25 μg/ml,G
CCCCCCC(=O)N1CCN(c2cc3c(cc2F)c(=O)c(C(=O)OC2C(=O)N(SC(C)CC)C2c2ccccc2Cl)cn3C2CC2)CC1 (stereo not drawn) [Lactam 130],Activity against Enterococcus faecium (growth observed),Enterococcus faecium; 1 μg/ml,G
same,Activity against Enterococcus faecium (growth observed),Enterococcus faecium; 2 μg/ml,G
same,Activity against Enterococcus faecium (growth observed),Enterococcus faecium; 3 μg/ml,G
same,Activity against Enterococcus faecium (growth observed),Enterococcus faecium; 4 μg/ml,G
same,Activity against Enterococcus faecium (growth observed),Enterococcus faecium; 5 μg/ml,G
same,Activity against Enterococcus faecium (growth observed),Enterococcus faecium; 6 μg/ml,G
same,Activity against Enterococcus faecium (growth observed),Enterococcus faecium; 7 μg/ml,G
same,Activity against Enterococcus faecium (growth observed),Enterococcus faecium; 8 μg/ml,G
same,Activity against Enterococcus faecium (growth observed),Enterococcus faecium; 9 μg/ml,G
same,Activity against Enterococcus faecium (growth observed),Enterococcus faecium; 10 μg/ml,G
same,Activity against Enterococcus faecium (growth observed),Enterococcus faecium; 25 μg/ml,G
same,Activity against Staphylococcus aureus (growth observed),Staphylococcus aureus; 1 μg/ml,G
same,Activity against Staphylococcus aureus (growth observed),Staphylococcus aureus; 2 μg/ml,G
same,Activity against Staphylococcus aureus (growth observed),Staphylococcus aureus; 3 μg/ml,G
same,Activity against Staphylococcus aureus (growth observed),Staphylococcus aureus; 4 μg/ml,G
same,Activity against Staphylococcus aureus (growth observed),Staphylococcus aureus; 5 μg/ml,G
same,Activity against Staphylococcus aureus (growth observed),Staphylococcus aureus; 6 μg/ml,G
same,Activity against Staphylococcus aureus (growth observed),Staphylococcus aureus; 7 μg/ml,G
same,Activity against Staphylococcus aureus (growth observed),Staphylococcus aureus; 8 μg/ml,G
same,Activity against Staphylococcus aureus (growth observed),Staphylococcus aureus; 9 μg/ml,G
same,Activity against Staphylococcus aureus (growth observed),Staphylococcus aureus; 10 μg/ml,X
same,Activity against Staphylococcus aureus (growth observed),Staphylococcus aureus; 25 μg/ml,X
same,MIC,Staphylococcus aureus; against S. aureus,10 µg/mL
same,Activity against Klebesiella pneumonia (growth observed),Klebesiella pneumonia; 1 μg/ml,G
same,Activity against Klebesiella pneumonia (growth observed),Klebesiella pneumonia; 2 μg/ml,G
same,Activity against Klebesiella pneumonia (growth observed),Klebesiella pneumonia; 3 μg/ml,G
same,Activity against Klebesiella pneumonia (growth observed),Klebesiella pneumonia; 4 μg/ml,G
same,Activity against Klebesiella pneumonia (growth observed),Klebesiella pneumonia; 5 μg/ml,G
same,Activity against Klebesiella pneumonia (growth observed),Klebesiella pneumonia; 6 μg/ml,G
same,Activity against Klebesiella pneumonia (growth observed),Klebesiella pneumonia; 7 μg/ml,G
same,Activity against Klebesiella pneumonia (growth observed),Klebesiella pneumonia; 8 μg/ml,G
same,Activity against Klebesiella pneumonia (growth observed),Klebesiella pneumonia; 9 μg/ml,G
same,Activity against Klebesiella pneumonia (growth observed),Klebesiella pneumonia; 10 μg/ml,G
same,Activity against Klebesiella pneumonia (growth observed),Klebesiella pneumonia; 25 μg/ml,G
same,Activity against Acinetobacter baumannii (growth observed),Acinetobacter baumannii; 1 μg/ml,G
same,Activity against Acinetobacter baumannii (growth observed),Acinetobacter baumannii; 2 μg/ml,G
same,Activity against Acinetobacter baumannii (growth observed),Acinetobacter baumannii; 3 μg/ml,G
same,Activity against Acinetobacter baumannii (growth observed),Acinetobacter baumannii; 4 μg/ml,G
same,Activity against Acinetobacter baumannii (growth observed),Acinetobacter baumannii; 5 μg/ml,G
same,Activity against Acinetobacter baumannii (growth observed),Acinetobacter baumannii; 6 μg/ml,G
same,Activity against Acinetobacter baumannii (growth observed),Acinetobacter baumannii; 7 μg/ml,G
same,Activity against Acinetobacter baumannii (growth observed),Acinetobacter baumannii; 8 μg/ml,G
same,Activity against Acinetobacter baumannii (growth observed),Acinetobacter baumannii; 9 μg/ml,G
same,Activity against Acinetobacter baumannii (growth observed),Acinetobacter baumannii; 10 μg/ml,G
same,Activity against Acinetobacter baumannii (growth observed),Acinetobacter baumannii; 25 μg/ml,G
same,Activity against Pseudomonas aeruginosa (growth observed),Pseudomonas aeruginosa; 1 μg/ml,G
same,Activity against Pseudomonas aeruginosa (growth observed),Pseudomonas aeruginosa; 2 μg/ml,G
same,Activity against Pseudomonas aeruginosa (growth observed),Pseudomonas aeruginosa; 3 μg/ml,G
same,Activity against Pseudomonas aeruginosa (growth observed),Pseudomonas aeruginosa; 4 μg/ml,G
same,Activity against Pseudomonas aeruginosa (growth observed),Pseudomonas aeruginosa; 5 μg/ml,G
same,Activity against Pseudomonas aeruginosa (growth observed),Pseudomonas aeruginosa; 6 μg/ml,G
same,Activity against Pseudomonas aeruginosa (growth observed),Pseudomonas aeruginosa; 7 μg/ml,G
same,Activity against Pseudomonas aeruginosa (growth observed),Pseudomonas aeruginosa; 8 μg/ml,G
same,Activity against Pseudomonas aeruginosa (growth observed),Pseudomonas aeruginosa; 9 μg/ml,G
same,Activity against Pseudomonas aeruginosa (growth observed),Pseudomonas aeruginosa; 10 μg/ml,G
same,Activity against Pseudomonas aeruginosa (growth observed),Pseudomonas aeruginosa; 25 μg/ml,G
